According to patent US10919899B2, “Imidazopyrazine compounds, preparation methods and uses thereof” (DONGGUAN ZHENXING-BEITE MEDICINE TECHNOLOGY CO., LTD., priority 2017, dated 2021):
“Also recorded” adds a separate entry of the source.

Tests used:
[1] = tested on: HCC827 NSCLC cell; experiment: Tumor cell proliferation inhibition assay (CellTiter-Glo), HCC827; type: cell-based; conditions: Homo sapiens, 72 hours, 10% fetal calf serum, read-out: HCC827 anti-proliferative IC50 level
Method: (§1) Cell viability was evaluated by measuring a content of triphosadenine (ATP) by using CellTiter-Glo luminescent cell viability assay kit method (Promega, # G7572, Madison, Wis.). Diffuse large B cell lymphoma cell strain TMD-8 and HCC827 NSCL cell strains are purchased from Shanghai Fudan IBS Cell Center and American Type Culture Collection (ATCC). After the cells were digested from a cell culture dish by pancreatin and re-suspended by DPBS culture medium, a Scepter automatic cell counter (Millipore, # PHCC00000) was used for counting to measure a cell density. The cells were diluted to be a solution containing 44,000 cells per milliliter. The cell solution with the adjusted density was added into a cell assay plate with 90 μl per well. The well plate was placed to an incubator with 5% CO2 at 37° C. to be incubated for 24 hours and then added with the compound to be tested with different concentrations. The cells and the compound were together incubated for 72 hours in the presence of 10% fetal calf serum. The content of ATP was measured by using CellTiter-Glo® Luminescent Cell Viability Assay kit (referring to manufacturer's instruction) to evaluate the inhibition to the cell growth. Briefly speaking, each well was added with 30 μl of CellTiter-Glo® reagent, the plate was shaken for 10 minutes to induce the cells to be lysed, and fluorescence signal was detected and recorded by fluorescencelchemiluminescence analyzer Fluoroskan Ascent FL (Thermo Scientific Fluoroskan Ascent FL). The maximal signal value was obtained from cells processed by dimethyl sulfoxide (DMSO) for 72 or 120 hours. The minimal signal value obtained from separate culture medium (wherein the number of cells was zero) was defined as 0. Inhibition ratio %=(maximal signal value-compound signal value)/(maximal signal value−minimal signal value)×100%. The data was processed by using GraphPad Prism V5.0 (GraphPad Software San Diego, Calif.) software. IC50 value was fitted and calculated via S-shaped dose-response curve.

[2] = Pharmacokinetic (PK) assay in rats; type: in vivo, rat; conditions: 20 mg/kg oral; for AUC(0-t): read-out: AUC0-24
Method: A male SD rat with 250-300 g of weight was fasted overnight before the assay. The compound to be tested was dissolved in 30% sulfobutyl ether-β-cyclodextrin (SBE-β-CD) and intragastrically administrated to the rat by 20 mg/kg of dosages. Take blood at 15th minute, 30th minute, and 1st, 2nd, 3rd, 4th, 6th, 8th, and 24th hours after the administratation, and about 0.3 mL of blood was taken at each time point. The blood samples were placed into centrifuge tubes containing K2-EDTA (dipotassium ethylene diamine tetraacetate) and plasma was taken via centrifugal treatment (2,000 g, 10 minutes, 4° C.) and stored in a −80° C. of ultra low temperature refrigerator. 50 μL of plasma sample was mixed with 50 μL of internal standard (IS) and extracted with ethyl acetate. After vacuum dried, the residue was re-dissolved in acetonitrile The sample was filtered and injected into LC-MS/MS to be analyzed.

[3] = tested on: Diffuse large B cell lymphoma cell strain TMD-8; experiment: Tumor cell proliferation inhibition assay (CellTiter-Glo), TMD-8; type: cell-based; conditions: Homo sapiens, TMD8; 72 hours, 10% fetal calf serum; read-out: TMD-8 anti-proliferative IC50 level
Method: as §1

[4] = biological target: Txk (h) (Homo sapiens (Human), UniProt P42681); experiment: Txk activity inhibition assay (radioactive protein kinase method, Eurofins); type: biochemical; conditions: for IC50: Km ATP, radiometric
Txk (h), sequence (P42681 whole entry): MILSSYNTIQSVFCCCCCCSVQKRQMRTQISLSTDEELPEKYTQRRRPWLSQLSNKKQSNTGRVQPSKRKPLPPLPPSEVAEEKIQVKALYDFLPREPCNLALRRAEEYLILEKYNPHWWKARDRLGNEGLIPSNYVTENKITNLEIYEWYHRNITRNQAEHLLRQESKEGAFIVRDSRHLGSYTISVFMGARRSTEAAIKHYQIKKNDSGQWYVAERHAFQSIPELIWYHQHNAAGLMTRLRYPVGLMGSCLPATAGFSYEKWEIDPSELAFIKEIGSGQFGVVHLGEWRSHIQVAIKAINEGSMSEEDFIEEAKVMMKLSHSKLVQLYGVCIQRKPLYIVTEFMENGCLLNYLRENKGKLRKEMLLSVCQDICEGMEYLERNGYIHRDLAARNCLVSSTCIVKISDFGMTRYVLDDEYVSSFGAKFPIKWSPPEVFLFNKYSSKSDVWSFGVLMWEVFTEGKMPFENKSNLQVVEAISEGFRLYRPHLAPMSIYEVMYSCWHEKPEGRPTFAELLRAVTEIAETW
Method: (§2) The inhibitory activities of the compound to Tec, Txk, and ITK of human were performed by Eurofins Pharma Discovery Services UK Limited (UK) of the United Kingdom. In the case of Km ATP, the radioactive protein kinase method was adopted by the test. The kinase was diluted with buffer solution (20 mM MOPS, 1 mM EDTA, 0.01% Brij-35, 5% Glycerol, 0.1% […], 1 mg/mL BSA) before the reaction. The compound was dissolved in 100% DMSO and was of 50-fold final reaction concentration.
TxK reaction solution contained 8 mM MOPS pH 7.0, 0.2 mM EDTA, 250 μM […], 10 mM magnesium acetate, and [γ-^33P]-ATP (about 500 cpm/pmol), 200 μM ATP-Mg was added, after mixing, the reaction was started, the incubation was performed for 40 minutes at room temperature, and 3% phosphoric acid solution was added to terminate the reaction, 10 μl (reaction solution) was placed on P30 filtration membrane, washed with 75 mM phosphoric acid for 5 minutes, and dried with methanol for one time, and then scintillation counting was performed.

[5] = biological target: Itk (h) (Homo sapiens (Human), UniProt Q08881); experiment: ITK activity inhibition assay (radioactive protein kinase method, Eurofins); type: biochemical
Itk (h), sequence (Q08881 whole entry): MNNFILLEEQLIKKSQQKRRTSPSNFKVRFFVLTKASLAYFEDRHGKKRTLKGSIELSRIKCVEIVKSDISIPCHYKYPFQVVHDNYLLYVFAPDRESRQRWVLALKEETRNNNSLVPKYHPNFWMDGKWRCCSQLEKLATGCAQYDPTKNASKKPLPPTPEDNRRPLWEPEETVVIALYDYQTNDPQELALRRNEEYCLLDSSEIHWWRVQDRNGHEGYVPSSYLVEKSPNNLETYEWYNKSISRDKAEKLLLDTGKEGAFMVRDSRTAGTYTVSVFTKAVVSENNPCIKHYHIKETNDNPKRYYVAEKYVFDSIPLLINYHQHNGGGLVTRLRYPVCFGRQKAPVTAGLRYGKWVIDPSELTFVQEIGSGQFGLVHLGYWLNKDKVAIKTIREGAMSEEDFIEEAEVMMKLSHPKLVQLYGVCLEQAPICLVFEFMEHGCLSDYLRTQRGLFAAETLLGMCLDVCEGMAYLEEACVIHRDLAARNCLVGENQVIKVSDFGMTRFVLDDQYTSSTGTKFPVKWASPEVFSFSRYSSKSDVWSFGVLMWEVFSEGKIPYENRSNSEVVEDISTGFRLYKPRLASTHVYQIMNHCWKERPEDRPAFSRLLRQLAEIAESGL
Method: as §2
ITK reaction solution included 8 mM MOPS pH 7.0, 0.2 mM EDTA, 0.33 mg/mL myelin basic protein, 10 mM magnesium acetate, and [γ-^33P]-ATP (about 500 cpm/pmol), 200 μM ATP-Mg was added, after mixing, the reaction was started, the incubation was performed for 40 minutes at room temperature, and 3% phosphoric acid solution was added to terminate the reaction. 10 μl (reaction solution) was placed on P30 filtration membrane, washed with 75 mM phosphoric acid for 5 minutes, and dried with methanol for one time, and then scintillation counting was performed.

[6] = biological target: BTK (Homo sapiens (Human), UniProt Q06187); experiment: BTK kinase activity inhibition assay (Caliper mobility shift); type: biochemical; conditions: ATP 90 μM, read-out: BTK IC50 level
BTK, sequence (Q06187 whole entry): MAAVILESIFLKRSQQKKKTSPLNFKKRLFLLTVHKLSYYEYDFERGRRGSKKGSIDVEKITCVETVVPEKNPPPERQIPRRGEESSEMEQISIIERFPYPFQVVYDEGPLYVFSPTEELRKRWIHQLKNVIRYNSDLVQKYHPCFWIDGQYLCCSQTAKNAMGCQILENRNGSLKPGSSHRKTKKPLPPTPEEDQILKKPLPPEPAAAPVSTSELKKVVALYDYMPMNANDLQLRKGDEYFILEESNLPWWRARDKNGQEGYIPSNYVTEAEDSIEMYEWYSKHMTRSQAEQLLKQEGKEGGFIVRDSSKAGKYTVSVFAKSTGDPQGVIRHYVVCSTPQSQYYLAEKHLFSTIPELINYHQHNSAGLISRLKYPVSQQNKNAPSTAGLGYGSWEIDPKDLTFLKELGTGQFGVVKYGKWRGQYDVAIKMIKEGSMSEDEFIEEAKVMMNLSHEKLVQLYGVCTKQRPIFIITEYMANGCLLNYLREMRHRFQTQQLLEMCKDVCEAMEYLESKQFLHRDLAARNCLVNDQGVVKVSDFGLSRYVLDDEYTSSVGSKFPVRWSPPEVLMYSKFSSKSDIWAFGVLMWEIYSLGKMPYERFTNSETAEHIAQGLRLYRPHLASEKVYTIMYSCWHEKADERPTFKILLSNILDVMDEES
Method: Activity of BTK protein kinase was tested by Caliper mobility shift assay (referring to J Biomol Screen 14:31, 2009). The compound of the present disclosure was dissolved in DMSO and then diluted 10-fold with kinase buffer solution (50 mM HEPES-pH 7.5, 0.0015% Brij-35, 10 mM MgCl2, 2 mM DTT). […] 10 μl of a substrate solution of a substrate FAM-labeled SRCtide peptide (Biochem, Cat. No. 112394) and ATP (90 μM) with 2.5-fold final reaction concentration was further added to start the reaction. Then incubation was performed for 10 minutes at room temperature. After incubation for 1 hour 28° C., 25 μl of stopping solution (100 mM HEPES, pH 7.5, 0.015% Brij-35, 0.2% Coating Reagent #3, 50 mM EDTA) was added to terminate the reaction. The conversion ratio data was read on Caliper EZ Reader II (Caliper Life Sciences). The inhibition ratio was calculated and the calculation formula is: inhibition ratio %=(max-conversion)/(max-min)×100 %.

[7] = biological target: EGFR T790M/L858R (Homo sapiens, UniProt P00533, L858R/T790M); experiment: EGFR activity inhibition assay (Caliper mobility shift); type: biochemical
EGFR T790M/L858R, sequence (P00533 25-1210 T790M/L858R limits assumed): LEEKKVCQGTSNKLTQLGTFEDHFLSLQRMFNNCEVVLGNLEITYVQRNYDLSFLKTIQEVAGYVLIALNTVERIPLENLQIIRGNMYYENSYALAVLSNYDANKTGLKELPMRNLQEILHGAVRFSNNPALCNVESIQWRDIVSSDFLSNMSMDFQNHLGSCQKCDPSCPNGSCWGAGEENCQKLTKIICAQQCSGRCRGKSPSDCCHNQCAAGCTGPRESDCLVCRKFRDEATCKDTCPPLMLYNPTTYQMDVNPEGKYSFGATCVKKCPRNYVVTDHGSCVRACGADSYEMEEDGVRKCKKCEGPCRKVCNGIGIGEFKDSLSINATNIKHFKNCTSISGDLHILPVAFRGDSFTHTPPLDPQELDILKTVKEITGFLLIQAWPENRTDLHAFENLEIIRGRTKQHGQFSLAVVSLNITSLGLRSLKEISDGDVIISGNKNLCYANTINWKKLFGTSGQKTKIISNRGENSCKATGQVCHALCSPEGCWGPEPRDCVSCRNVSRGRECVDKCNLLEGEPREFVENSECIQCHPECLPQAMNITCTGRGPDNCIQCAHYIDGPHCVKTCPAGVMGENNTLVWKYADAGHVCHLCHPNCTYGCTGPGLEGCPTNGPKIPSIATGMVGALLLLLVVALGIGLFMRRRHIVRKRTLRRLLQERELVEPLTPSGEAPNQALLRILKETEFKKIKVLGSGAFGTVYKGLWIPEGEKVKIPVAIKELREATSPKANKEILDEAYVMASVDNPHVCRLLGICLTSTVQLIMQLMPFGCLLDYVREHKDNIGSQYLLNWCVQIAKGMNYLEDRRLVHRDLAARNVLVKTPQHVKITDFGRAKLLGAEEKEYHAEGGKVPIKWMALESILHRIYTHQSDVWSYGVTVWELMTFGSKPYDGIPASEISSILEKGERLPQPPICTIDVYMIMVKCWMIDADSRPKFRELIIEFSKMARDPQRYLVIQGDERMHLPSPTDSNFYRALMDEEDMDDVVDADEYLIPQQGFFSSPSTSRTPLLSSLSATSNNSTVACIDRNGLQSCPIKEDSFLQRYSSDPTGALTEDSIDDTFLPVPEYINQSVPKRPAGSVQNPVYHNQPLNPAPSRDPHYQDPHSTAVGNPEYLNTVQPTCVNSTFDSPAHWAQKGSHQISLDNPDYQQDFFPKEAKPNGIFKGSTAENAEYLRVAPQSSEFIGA
Excerpt: The conversion ratio data was read on Caliper EZ Reader II (Caliper Life Sciences).

[8] = biological target: Tec (h) activated (Homo sapiens (Human), UniProt P42680); experiment: Tec activity inhibition assay (radioactive protein kinase method, Eurofins); type: biochemical
Tec (h) activated, sequence (P42680 whole entry): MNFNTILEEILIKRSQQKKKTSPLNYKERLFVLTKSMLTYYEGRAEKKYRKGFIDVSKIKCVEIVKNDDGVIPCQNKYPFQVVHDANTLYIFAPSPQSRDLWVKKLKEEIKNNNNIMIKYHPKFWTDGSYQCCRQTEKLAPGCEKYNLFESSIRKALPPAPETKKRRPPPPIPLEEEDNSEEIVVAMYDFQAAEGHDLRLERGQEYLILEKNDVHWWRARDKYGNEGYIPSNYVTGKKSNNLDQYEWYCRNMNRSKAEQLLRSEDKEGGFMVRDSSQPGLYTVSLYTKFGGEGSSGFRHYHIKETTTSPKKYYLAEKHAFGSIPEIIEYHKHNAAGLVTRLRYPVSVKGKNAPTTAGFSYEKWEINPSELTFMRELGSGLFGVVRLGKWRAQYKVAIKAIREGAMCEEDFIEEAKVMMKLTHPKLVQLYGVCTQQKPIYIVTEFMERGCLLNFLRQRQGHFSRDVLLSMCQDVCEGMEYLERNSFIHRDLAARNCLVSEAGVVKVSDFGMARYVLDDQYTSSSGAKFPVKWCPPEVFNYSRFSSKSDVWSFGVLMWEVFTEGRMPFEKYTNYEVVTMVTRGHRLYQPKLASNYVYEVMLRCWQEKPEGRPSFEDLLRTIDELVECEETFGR
Method: as §2
10 μl (reaction solution) was placed on P30 filtration membrane, washed with 75 mM phosphoric acid for 5 minutes, and dried with methanol for one time, and then scintillation counting was performed.

[9] = tested on: TMD-8 lymphoma cell strain transplanted tumor; experiment: Tumor model pharmacodynamic assay, TMD-8 transplanted tumor; type: in vivo, mice; conditions: for T/C (relative tumor volume increased ratio): 18 days
Method: The dose-effect relationship of inhibition of the compound to tumor growth in a diffuse large B cell lymphoma cell strain TMD-8 transplanted tumor model was studied in the present assay. When volume of TMD-8 tumor reached around 200 mm^3, the animals were divided into four oral administration groups, i.e. vehicle control group and 50 mg/kg, 100 mg/kg, and 200 mg/kg of compound 1 oral administration groups (n=8/
roup). […]
The tumor volume was measured, and the relative tumor volume (RTV) and the relative tumor volume increased ratio were calculated. RTV=Vt/V0, wherein Vt is the average value of the tumor volume at t^th day after the grouping and administrating, and V0 is the average value of the tumor volume at the grouping day. T/C=treatment group RTV/control group RTVx100%.

`CC#CC(=O)N1CCC[C@H]1c1nc(-c2ccc(C(=O)Nc3ccccn3)cc2)c2c(N)nccn12` [ACP-196, Acalabrutinib, reference compound] showed an IC50 [1] greater than 10000 nM, a t1/2 ([2]; male SD rat) of 7.9 h and an AUC(0-inf) ([2]; plasma, male SD rat) of 1400 ng·h/mL. It also gave a Cmax ([2]; plasma, male SD rat) of 668 ng/mL, a half-life ([2]; plasma, male SD rat) of 7.9 h and an AUC(0-t) ([2]; plasma, male SD rat) of 1300 ng·h/mL. It also gave an IC50 [3] of no more than 100 nM and an IC50 [4] of 5000 nM.

For `CC#CC(=O)N1CCC[C@H]1c1nc(-c2ccc(OCc3ccccc3)cc2)c2c(N)nccn12` [Compound 1, (S)-1-(2-(8-amino-1-(4-(benzyloxy)phenyl)imidazo[1,5-a]pyrazin-3-yl)pyrrolidin-1-yl)but-2-yn-1-one], the “inhibitory activity to ITK (in words)” value [5] was “very low”, the IC50 ([5]; Km ATP, radiometric) was greater than 10000 nM and the IC50 [1] was greater than 10000 nM. The t1/2 ([2]; male SD rat) was 4.2 h, the AUC(0-inf) ([2]; plasma, male SD rat) was 3490 ng·h/mL and the Cmax ([2]; plasma, male SD rat) was 1540 ng/mL. The Tmax ([2]; plasma, male SD rat) was 0.5 h, the half-life ([2]; plasma, male SD rat) was 4.2 h and the AUC(0-t) ([2]; plasma, male SD rat) was 3480 ng·h/mL. The “AUC relative to ACP-196” value ([2]; rat) was “more than double”, the “Cmax relative to ACP-196” value ([2]; rat) was “more than double” and the “half-life compared to ACP-196 (in words)” value ([2]; rat) was “shorter half-life”. For the same compound, the “plasma exposure amount compared to ACP-196 (in words)” value ([2]; rat) was “higher plasma exposure amount”, the IC50 [3] was no more than 100 nM and the IC50 [6] was no more than 100 nM. For the same compound, the “inhibitory effect on EGFR (in words)” value [7] was “does not inhibit”, the IC50 ([7]; Km ATP) was greater than 10000 nM and the “inhibitory activity to Txk (in words)” value [4] was “very low”. For the same compound, the IC50 [4] was 4540 nM, the “inhibitory activity to Tec (in words)” value [8] was “very low” and the IC50 ([8]; Km ATP, radiometric) was 218 nM. The “T/C (relative tumor volume increased ratio)” value ([9]; 50 mg/kg oral once a day) was 71%, the “T/C (relative tumor volume increased ratio)” value ([9]; 100 mg/kg oral once a day) was 7% and the “T/C (relative tumor volume increased ratio)” value ([9]; 200 mg/kg oral once a day) was −91%. The “weight of the animal compared to before the administration” value ([9]; each administration group, 50, 100, 200 mg/kg oral) was “increased” and the “inhibition of growth of TMD-8 transplanted tumor (in words)” value ([9]; oral administration, 50-200 mg/kg) was “inhibit the growth of TMD-8 transplanted tumor dose-dependently; also recorded: dosage-dependently inhibit the growth”.

`CC#CC(=O)N1CCC[C@H]1c1nc(-c2ccc(OCc3ccc(C(F)(F)F)cc3)cc2)c2c(N)nccn12` [Compound 2, (S)-1-(2-(8-amino-1-(4-((4-(trifluoromethyl)benzyl)oxy)phenyl)imidazo[1,5-a]pyrazin-3-yl)pyrrolidin-1-yl)but-2-yn-1-one] showed an IC50 [1] of 1000 to 10000 nM, an IC50 [3] of 100 to 500 nM and an IC50 [6] greater than 750 nM.

In the case of `CC#CC(=O)N1CCC[C@H]1c1nc(-c2ccc(OCc3ccc(F)cc3)cc2)c2c(N)nccn12` [Compound 3, (S)-1-(2-(8-amino-1-(4-((4-fluorobenzyl)oxy)phenyl)imidazo[1,5-a]pyrazin-3-yl)pyrrolidin-1-yl)but-2-yn-1-one], the IC50 [1] is reported as greater than 10000 nM, the IC50 [3] is reported as 100 to 500 nM and the IC50 [6] is reported as greater than 750 nM.

Compound `CC#CC(=O)N1CCC[C@H]1c1nc(-c2ccc(OCc3ccccn3)cc2)c2c(N)nccn12` [Compound 5, (S)-1-(2-(8-amino-1-(4-(pyridin-2-ylmethoxy)phenyl)imidazo[1,5-a]pyrazin-3-yl)pyrrolidin-1-yl)but-2-yn-1-one] has an IC50 [6] of 300 to 750 nM.

In the case of `CC#CC(=O)N1CCC[C@H]1c1nc(-c2ccc(OCc3cc(F)ccn3)cc2)c2c(N)nccn12` [Compound 6, (S)-1-(2-(8-amino-1-(4-((4-fluoropyridin-2-yl)methoxy)phenyl)imidazo[1,5-a]pyrazin-3-yl)pyrrolidin-1-yl)but-2-yn-1-one], the IC50 [1] is reported as greater than 10000 nM, the IC50 [3] is reported as 100 to 500 nM and the IC50 [6] is reported as greater than 750 nM.

`CC#CC(=O)N1CCC[C@H]1c1nc(-c2ccc(OCc3ccccc3)nc2)c2c(N)nccn12` [Compound 9, (S)-1-(2-(8-amino-1-(6-(benzyloxy)pyridin-3-yl)imidazo[1,5-a]pyrazin-3-yl)pyrrolidin-1-yl)but-2-yn-1-one] showed an IC50 [6] greater than 750 nM.

For `CC#CC(=O)N1CCC[C@H]1c1nc(-c2ccc(OCCc3ccccc3)cc2)c2c(N)nccn12` [Compound 17, (S)-1-(2-(8-amino-1-(4-phenethoxyphenyl)imidazo[1,5-a]pyrazin-3-yl)pyrrolidin-1-yl)but-2-yn-1-one], the IC50 [6] was 300 to 750 nM.

With `C=CC(=O)N1CCC[C@H]1c1nc(-c2ccc(OCc3ccccc3)cc2)c2c(N)nccn12` [Compound 21, (S)-1-(2-(8-amino-1-(4-(benzyloxy)phenyl)imidazo[1,5-a]pyrazin-3-yl)pyrrolidin-1-yl)prop-2-en-1-one] the IC50 [1] was greater than 10000 nM, the IC50 [3] was no more than 100 nM and the IC50 [6] was no more than 100 nM.

For `C=CC(=O)N1CCC[C@H]1c1nc(-c2ccc(OCc3ccccc3)nc2)c2c(N)nccn12` [Compound 25, (S)-1-(2-(8-amino-1-(6-(benzyloxy)pyridin-3-yl)imidazo[1,5-a]pyrazin-3-yl)pyrrolidin-1-yl)prop-2-en-1-one], the IC50 [1] was greater than 10000 nM, the IC50 [3] was no more than 100 nM and the IC50 [6] was no more than 100 nM.

Compound `C=CC(=O)N1CCC[C@H]1c1nc(-c2ccc(OCc3ccccn3)cc2)c2c(N)nccn12` [Compound 29, (S)-1-(2-(8-amino-1-(4-(pyridin-2-ylmethoxy)phenyl)imidazo[1,5-a]pyrazin-3-yl)pyrrolidin-1-yl)prop-2-en-1-one] has an IC50 [1] of 1000 to 10000 nM, an IC50 [3] of no more than 100 nM and an IC50 [6] of 100 to 300 nM.
